Experimental data taken from the NIST ThermoML archive (doi:10.1021/je200595b).

Test: excess molar enthalpy (molar enthalpy of mixing); xn = mol fraction of the nth substance listed
Settings: 298.15 K, 100 kPa, Liquid, Flow calorimetry

CC(=O)OC(C)=O [ethanoic anhydride] + CCO
Settings | excess molar enthalpy [kcal/mol]
x2 = 0.05 | 0.0822
x2 = 0.1 | 0.154
x2 = 0.15 | 0.214
x2 = 0.2 | 0.266
x2 = 0.25 | 0.306
x2 = 0.3 | 0.339
x2 = 0.35 | 0.364
x2 = 0.4 | 0.382
x2 = 0.45 | 0.396
x2 = 0.5 | 0.405
x2 = 0.6 | 0.383
x2 = 0.65 | 0.363
x2 = 0.7 | 0.337
x2 = 0.75 | 0.306
x2 = 0.8 | 0.268
x2 = 0.85 | 0.221
x2 = 0.9 | 0.164
x2 = 0.95 | 0.0939

CC(=O)OC(C)=O [ethanoic anhydride] + CC(=O)O
Settings | excess molar enthalpy [kcal/mol]
x1 = 0.05 | 0.0108
x1 = 0.1 | 0.0213
x1 = 0.15 | 0.032
x1 = 0.2 | 0.0423
x1 = 0.25 | 0.0519
x1 = 0.3 | 0.0607
x1 = 0.35 | 0.0688
x1 = 0.4 | 0.0758
x1 = 0.45 | 0.0813
x1 = 0.5 | 0.0851
x1 = 0.55 | 0.0875
x1 = 0.6 | 0.088
x1 = 0.65 | 0.0863
x1 = 0.7 | 0.0822
x1 = 0.75 | 0.0758
x1 = 0.8 | 0.0669
x1 = 0.85 | 0.055
x1 = 0.9 | 0.0402
x1 = 0.95 | 0.022

CCOC(C)=O [ethyl acetate] + CCO
Settings | excess molar enthalpy [kcal/mol]
x2 = 0.05 | 0.0712
x2 = 0.1 | 0.135
x2 = 0.15 | 0.185
x2 = 0.2 | 0.222
x2 = 0.25 | 0.25
x2 = 0.3 | 0.27
x2 = 0.35 | 0.283
x2 = 0.4 | 0.291
x2 = 0.45 | 0.293
x2 = 0.5 | 0.289
x2 = 0.55 | 0.284
x2 = 0.6 | 0.276
x2 = 0.65 | 0.262
x2 = 0.7 | 0.234
x2 = 0.75 | 0.205
x2 = 0.8 | 0.174
x2 = 0.85 | 0.138
x2 = 0.9 | 0.1
x2 = 0.95 | 0.0554
